The procedure of data set [1]:
For these experiments fluoranthene was dissolved in the aqueous medium, L-15/ex, to yield 297 nM (60 ng/ml) of fluoranthene. The fluoranthene solution was added once to empty wells of tissue culture plates, and 10 min, 2, 4, and 24 h later, the medium was removed and culture wells extracted with methanol in order to solubilize fluoranthene that had adsorbed to the culture surface. The concentration of fluoranthene in the methanol extracts was subsequently determined by high performance liquid chromatography (HPLC) and expressed as a percentage of the initial concentration, 297 nM.

Data set [2] relates to 7-ethoxyresorufin-o-deethylase (EROD) activity in a rainbow trout liver cell line (RTL-W1). Kind of data set: Induction of EROD activity in RTL-W1 cells. Particulars: Oncorhynchus mykiss. In kind it is cell-based. The protocol:
For toxicity tests, reporter cells or molecules are preferably added to chambers in an appropriate culture medium. An appropriate liquid culture medium is one that will maintain reporter cell vitality (or reporter molecule integrity) and support expression of a chosen endpoint in the toxicological test. For example for the experiment depicted in FIG. 8, liver cells from rainbow trout (RTL-W1 cells) were added in Leibovitz' L-15 medium that contained 5% fetal bovine serum as a supplement (Bols et al., 1999). The reporters are left to desorb or interact with the chemicals at the sampler surface for a predetermined time. […] After a predetermined exposure time, the reporter cells are evaluated for the expression of toxicity. […] Other examples of toxicological endpoints would be the disruption of metabolic activity or the loss of cell membrane integrity in cultured cells, which can be measured using the fluorescent indicator dyes alamar Blue and CFDA-AM (Schirmer et al., 2000a/b), or the modulation of light emission in luminescent bacteria (Bitton and Koopman, 1992). Although not essential to the method, the arrangement of chambers in a multiwell plate format and the use of fluorescent indicator dyes or light emission is advantageous because of recent developments in automated fluorescence/luminescence multiwell plate readers. Plates with […] can be analyzed in seconds. […]

From patent US7186565B2, “Sampling and toxicity monitoring device and method” (priority 2001, dated 2007) come the findings set out here.

Each structure is given as a SMILES string. Where two headings read alike, the source gives them in different places.

`c1ccc2c(c1)-c1cccc3cccc-2c13` [fluoranthene]: in data set [1] (297 nM in L-15/ex, 10 min, 2, 4, 24 h), the “binding of fluoranthene by polystyrene of tissue culture plates” value is “high affinity”. Also, in data set [1] (single dose 297 nM (60 ng/ml) in L-15/ex in empty wells, methanol extract, HPLC), the “time of exposure until sorption equilibrium is reached” value was “less than 24 h”.
The term EC50 denotes the concentration giving half of the maximal effect. Consider `c1ccc2cc3c(cc2c1)-c1cccc2cccc-3c12` [BkF, benzo[k]fluoranthene], for which the EC50 in data set [2] (BkF added in dissolved form to wells after cell attachment (conventional method), RTL-W1 cells, read-out: EC50 of EROD induction, dissolved BkF) stood at 8.6 nM; in data set [2] (BkF adsorbed to polystyrene culture wells prior to cell attachment, RTL-W1 cells attached 24 h before EROD measurement, read-out: EC50 of EROD induction, sorbed BkF), 10.4 nM.
